Laboratory results reported in ChEMBL document CHEMBL1148176, “Polycyclic guanidine alkaloids from the marine sponge Crambe crambe and Ca++ channel blocker activity of crambescidin 816” (J Nat Prod, 1993).
Calls of active or inactive are those of the source. No cut-off for these calls is given here.

Experiments:
[1] = tested on: Jejunum; test: Inhibition of acetylcholine-induced contraction in Sprague-Dawley rat jejunum pretreated for 3 mins before acetylcholine challenge; format: functional, tissue-based
[2] = tested on: Poecilia reticulata; test: Toxicity against Lebistes reticulatus at 0.2 mg/l; format: organism-based; conditions: in vivo
[3] = tested on: Ileum; test: Inhibition of acetylcholine-induced contraction in guinea pig ileum; format: functional, tissue-based; conditions: Cavia porcellus
[4] = tested on: Jejunum; test: Inhibition of Sprague-Dawley rat jejunum contraction at 0.6 to 6.0 pM; format: functional, tissue-based
[5] = Cytotoxicity against human HCT16 cells; format: functional, cell-based
[6] = tested on: Jejunum; test: Inhibition of acetylcholine-induced contraction in Sprague-Dawley rat jejunum at 6.0 pM pretreated for 3 mins before acetylcholine challenge; format: functional
[7] = target: L-type calcium channel (Mus musculus, UniProt Q01815+Q02789+Q99246+Q9JIS7); test: Antagonist activity at voltage-dependent L-type calcium channel in mouse neurobalstoma-rat glioma NG 108-15 hybrid cells assessed as inhibition of KCl-induced increase in intracellular calcium level pretreated for 3 mins before KCl challenge; format: functional, cell-based
[8] = tested on: Jejunum; test: Inhibition of acetylcholine-induced contraction in Sprague-Dawley rat jejunum at 0.6 pM pretreated for 3 mins before acetylcholine challenge; format: functional
[9] = tested on: Ephydatia fluviatilis; test: Inhibition of reaggregation of cells in Ephydatia fluviatilis; format: functional
[10] = tested on: Jejunum; test: Inhibition of acetylcholine-induced contraction in Sprague-Dawley rat jejunum at 1.2 pM pretreated for 3 mins before acetylcholine challenge; format: functional

Row | Structure (SMILES) | Activity [2] | IC50 [7] | Activity [9] | also measured
1 | CC[C@H]1C=CCC[C@]2(C[C@H]3CC[C@]4(O)[C@H](C(=O)OCCCCCCCCCCCCCCCC(=O)N(CCCN)C[C@@H](O)CCN)[C@@]5(CCC[C@@H](C)O5)NC(=[N+]34)N2)O1.[Cl-] [CRAMBESCIDIN 816 HYDROCHLORIDE] | Toxic | 1.5 ×10⁻⁴ microM | 1.2 mM | Activity [1]: Dose-dependent effect; Activity [3]: Active; Activity [4]: inactive; IC50 [5]: 0.24 µg/mL; inhibition at 6 pM [6]: 30%; Activity ([7]; mouse): Dose-dependent effect; inhibition at 600 fM [8]: 18%; inhibition at 1.2 pM [10]: 25%
2 | CCCCCCCCCCCC1N=C(N)N2CCCC2=C1C(=O)OCCCCNC(=N)N.Cl (stereo not drawn) [CRAMBINE A] | Toxic | – | 2.3 mM | –
3 | CCCCCCCCCCC[C@@H]1N=C(N)N[C@]2(CCCO2)[C@@H]1C(=O)OCCCCCNC(=N)N.Cl [CRAMBINE B] | Toxic | – | 2 mM | –
4 | CCCCCCCCCCCC1N=C(N)NC(CCCO)=C1C(=O)OCCCCCNC(=N)N.Cl (stereo not drawn) [CRAMBINE C1] | Toxic | – | 2.1 ×10⁻² M | –
5 | COC(=O)C1=C(C)NC(C)=C(C(=O)OC)C1c1ccccc1[N+](=O)[O-] [NIFEDIPINE] | – | 1.2 µM | – | –
